Experimental findings from US10995091B2 (Proximagen, LLC, priority 2010, dated 2021) are described below.

Counter-ions that a name gives are not always drawn. Some results are limits rather than exact numbers.

T1 sequence (P61073 whole entry): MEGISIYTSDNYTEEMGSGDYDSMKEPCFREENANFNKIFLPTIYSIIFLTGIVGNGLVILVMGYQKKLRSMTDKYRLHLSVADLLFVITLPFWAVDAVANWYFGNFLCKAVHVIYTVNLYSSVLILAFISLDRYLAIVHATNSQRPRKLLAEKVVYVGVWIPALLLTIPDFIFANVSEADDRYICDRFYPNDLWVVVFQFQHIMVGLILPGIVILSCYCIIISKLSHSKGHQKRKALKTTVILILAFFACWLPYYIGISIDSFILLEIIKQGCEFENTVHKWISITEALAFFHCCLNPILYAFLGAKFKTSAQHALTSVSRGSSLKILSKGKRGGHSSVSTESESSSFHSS

The experiment addresses T1, Human CXCR4 transfected HEK293 cells (Homo sapiens, UniProt P61073).
T1 construct: expressed in transfected cells; host or cells: HEK293
The experiment can be described thus: CXCR4 functional calcium assay (calcium flux FLIPR, antagonism of SDF1 response). The note with it: CXCR4 functional activity, antagonism of SDF1 (EC50 concentration), read-out: CXCR4 fKi. The format is cell-based. An outline of the steps: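 Dose-dependent antagonism of the SDF1 response was read by FLIPR as Fluo-4 calcium signal (2 μM dye) in CXCR4-expressing human HEK293 cells, in HBSS with probenecid, BSA and HEPES at pH 7.4 and 37° C. Test compound was given before an EC50-level SDF1 challenge. Curves were then fitted.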
`O=C(Nc1ccncc1)c1cccc(N2CCN(C3CCCN(Cc4ccc(F)cc4Cl)CC3)CC2)n1` (stereo not drawn) [Example 241, 6-(4-{1-[(2-Chloro-4-fluorophenyl)methyl]azepan-4-yl}piperazin-1-yl)-N-(pyridin-4-yl)pyridine-2-carboxamide]: the Ki fell in the range of 20 to 100 nM.

As to `O=C(Nc1cccnc1)c1cccc(N2CCCN(C3CCN(Cc4ccccc4Cl)CC3)CC2)n1` [Example 53], the Ki lay in the range of 20 to 100 nM.

For the molecule `O=C(NCC1CC1)c1cccc(N2CCCN(C3CCN([C@H]4CCc5ccccc54)CC3)CC2)n1` [Example 77, N-(Cyclopropylmethyl)-6-(4-{1-[(1S)-2,3-dihydro-1H-inden-1-yl]piperidin-4-yl}-1,4-diazepan-1-yl)pyridine-2-carboxamide], the Ki was in the range of 20 to 100 nM.

With `CC(C)N1CCC(N2CCCN(c3cccc(C(=O)Cc4ccccc4)n3)CC2)CC1` [Example 220, 2-Phenyl-1-(6-{4-[1-(propan-2-yl)piperidin-4-yl]-1,4-diazepan-1-yl}pyridin-2-yl)ethan-1-one], the Ki fell in the range of 20 to 100 nM.

Regarding `Cc1cccc2nc(-c3cccc(N4CCCN(C5CCN(C(C)C)CC5)CC4)n3)[nH]c12` [Example 143, 7-Methyl-2-(6-{4-[1-(propan-2-yl)piperidin-4-yl]-1,4-diazepan-1-yl}pyridine-2-yl)-1H-1,3-benzodiazole], the Ki lay in the range of 100 to 500 nM.

Regarding `CC(C)c1nc(-c2cccc(N3CCCN(C4CCN(C(C)C)CC4)CC3)n2)no1` [Example 158, 1-{6-[5-(Propan-2-yl)-1,2,4-oxadiazol-3-yl]pyridine-2-yl}-4-[1-(propan-2-yl)piperidin-4-yl]-1,4-diazepane], the Ki is 500 to 1000 nM.

Consider `COCCCNC(=O)c1cccc(N2CCCN(C3CCN(C(C)C)CC3)CC2)n1` [Example 15, N-(3-Methoxypropyl)-6-{4-[1-(propan-2-yl)piperidin-4-yl]-1,4-diazepan-1-yl}pyridine-2-carboxamide], for which the Ki is 100 to 500 nM.

On to `CC(C)N1CCC(N2CCCN(c3cccc(-c4nnn(C)n4)n3)CC2)CC1` [Example 168, 1-[6-(2-Methyl-2H-1,2,3,4-tetrazol-5-yl)pyridin-2-yl]-4-[1-(propan-2-yl)piperidin-4-yl]-1,4-diazepane], for which the Ki lay in the range of 100 to 500 nM.

Take `CC(C)N1CCC(N2CCCN(c3cccc(C(=O)Nc4ccc(Cl)cc4)n3)CC2)CC1` [Example 25, N-(4-Chlorophenyl)-6-{4-[1-(propan-2-yl)piperidin-4-yl]-1,4-diazepan-1-yl}pyridine-2-carboxamide]: the Ki fell in the range of 100 to 500 nM.

Consider `CC(C)N1CCC(N2CC3CCC2CN(c2cccc(C(=O)NCC4CC4)n2)C3)CC1` (stereo not drawn) [Example 199, N-(Cyclopropylmethyl)-6-{6-[1-(propan-2-yl)piperidin-4-yl]-3,6-diazabicyclo[3.2.2]nonan-3-yl}pyridine-2-carboxamide trihydrochloride], for which the Ki was 500 to 1000 nM.

In the case of `CC(C)N1CCC(N2CCCN(c3cccc(C(=O)NCc4ccncc4)n3)CC2)CC1` [Example 36, 6-{4-[1-(Propan-2-yl)piperidin-4-yl]-1,4-diazepan-1-yl}-N-(pyridin-4-ylmethyl)pyridine-2-carboxamide], the Ki is under 20 nM.

On to `CC(C)N1CCC(N2CCCN(c3cccc(C(=O)NCc4cncs4)n3)CC2)CC1` [Example 43, 6-{4-[1-(Propan-2-yl)piperidin-4-yl]-1,4-diazepan-1-yl}-N-(1,3-thiazol-5-ylmethyl)pyridine-2-carboxamide], for which the Ki was 20 to 100 nM.

As to `COc1ccc2nc(-c3cccc(N4CCCN(C5CCN(C(C)C)CC5)CC4)n3)[nH]c2c1` [Example 150, 6-Methoxy-2-(6-{4-[1-(propan-2-yl)piperidin-4-yl]-1,4-diazepan-1-yl}pyridine-2-yl)-1H-1,3-benzodiazole], the Ki is 20 to 100 nM.

`CC(C)N1CCCC(NCCNc2cccc(C(=O)Nc3ccncc3)n2)CC1` (stereo not drawn) [Example 234, 6-[(2-{[1-(Propan-2-yl)azepan-4-yl]amino}ethyl)amino]-N-(pyridin-4-yl)pyridine-2-carboxamide]: the Ki fell in the range of 100 to 500 nM.

For `O=C(Nc1ccncc1)c1cccc(N2CC3CCC(C2)N(C2CCN(Cc4ccccc4Cl)CC2)C3)n1` (stereo not drawn) [Example 208, 6-(6-{1-[(2-Chlorophenyl)methyl]piperidin-4-yl}-3,6-diazabicyclo[3.2.2]nonan-3-yl)-N-(pyridin-4-yl)pyridine-2-carboxamide], the Ki was in the range of 100 to 500 nM.

In the case of `CCc1nc(-c2cccc(N3CCCN(C4CCN(C(C)C)CC4)CC3)n2)[nH]c1CC` [Example 120, 1-[6-(4,5-Diethyl-1H-imidazol-2-yl)pyridine-2-yl]-4-[1-(propan-2-yl)piperidin-4-yl]-1,4-diazepane], the Ki was in the range of 20 to 100 nM.

Turning to `Cc1nc(-c2cccc(N3CC[C@@H](NC[C@H]4CCN(C5CCCC5)C4)C3)n2)[nH]c1C1CC1` [Example 225, (3R)—N-{[(3R)-1-Cyclopentylpyrrolidin-3-yl]methyl}-1-[6-(4-cyclopropyl-5-methyl-1H-imidazol-2-yl)pyridin-2-yl]pyrrolidin-3-amine], the Ki was under 20 nM.

Turning to `O=C(NCC1CC1)c1cccc(N2CCCN(C3CCN(Cc4ccccc4)CC3)CC2)n1` [Example 129, 6-[4-(1-Benzylpiperidin-4-yl)-1,4-diazepan-1-yl]-N-(cyclopropylmethyl)pyridine-2-carboxamide], the Ki was 500 to 1000 nM.

As for `CCCc1nc(-c2cccc(N3CCCN(C4CCN(C(C)C)CC4)CC3)n2)no1` [Example 156, 1-[1-(Propan-2-yl)piperidin-4-yl]-4-[6-(5-propyl-1,2,4-oxadiazol-3-yl)pyridine-2-yl]-1,4-diazepane], the Ki was 20 to 100 nM.

Consider `O=C(NCC1CCOCC1)c1cccc(N2CCCN(C3CCN(Cc4ccccc4Cl)CC3)CC2)n1` [Example 47, 6-(4-{1-[(2-Chlorophenyl)methyl]piperidin-4-yl}-1,4-diazepan-1-yl)-N-(oxan-4-ylmethyl)pyridine-2-carboxamide], for which the Ki was under 20 nM.

Regarding `[2H]C1([2H])CCN(C2CCN(C3CCCC3)CC2)CCN1c1cccc(C(=O)Nc2ccncc2)n1` [Example 179, 6-[4-(1-Cyclopentylpiperidin-4-yl)-7,7-dihydrogenio-1,4-diazepan-1-yl]-N-(pyridine-4-yl)pyridine-2-carboxamide], the Ki was under 20 nM.

With `[2H]C1([2H])CCN(c2cccc(C(=O)Nc3ccncc3)n2)CCN1C1CCN(Cc2ccccc2Cl)CC1` [Example 204, 6-(4-{1-[(2-Chlorophenyl)methyl]piperidin-4-yl}-5,5-dihydrogenio-1,4-diazepan-1-yl)-N-(pyridin-4-yl)pyridine-2-carboxamide], the Ki was under 20 nM.

Turning to `CC(C)NCC(O)CN1CCCN(c2cccc(C(=O)NCc3cccnc3)n2)CC1` (stereo not drawn) [Example 254, 6-{4-[2-Hydroxy-3-(propan-2-ylamino)propyl]-1,4-diazepan-1-yl}-N-(pyridin-3-ylmethyl)pyridine-2-carboxamide], the Ki was in the range of 100 to 500 nM.

Regarding `CC(C)N1CCC(N2CCCN(c3cccc(-c4noc(C5CC5)n4)n3)CC2)CC1` [Example 161, 1-[6-(5-Cyclopropyl-1,2,4-oxadiazol-3-yl)pyridine-2-yl]-4-[1-(propan-2-yl)piperidin-4-yl]-1,4-diazepane], the Ki was 100 to 500 nM.

As to `CCC(CC)N1CCC(N2CCCN(c3cccc(C(=O)NCC4CC4)n3)CC2)CC1` [Example 66, N-(Cyclopropylmethyl)-6-{4-[1-(pentan-3-yl)piperidin-4-yl]-1,4-diazepan-1-yl}pyridine-2-carboxamide], the Ki is 20 to 100 nM.

`CC(C)N1CCC(N2CCCN(c3cccc(-c4ncc(C(F)(F)F)[nH]4)n3)CC2)CC1` [Example 112, 1-[1-(Propan-2-yl)piperidin-4-yl]-4-{6-[4-(trifluoromethyl)-1H-imidazol-2-yl]pyridine-2-yl}-1,4-diazepane]: the Ki fell in the range of 500 to 1000 nM.

For `Cc1nc(-c2cccc(NCCNC3CCN(C4CCCC4)CC3)n2)[nH]c1C1CC1` [Example 232, 1-Cyclopentyl-N-(2-{[6-(5-cyclopropyl-4-methyl-1H-imidazol-2-yl)pyridin-2-yl]amino}ethyl)piperidin-4-amine], the Ki lay within 100 to 500 nM.

Turning to `[2H]C1([2H])CCN(c2cccc(C(=O)Nc3ccncc3)n2)CC(C)N1C1CCN([C@@H](C)C(F)(F)F)CC1` (stereo partly drawn) [Example 196, 6-(5,5-Dihydrogenio-3-methyl-4-{1-[(2S)-1,1,1-trifluoropropan-2-yl]piperidin-4-yl}-1,4-diazepan-1-yl)-N-(pyridin-4-yl)pyridine-2-carboxamide], the Ki lay in the range of 20 to 100 nM.

For `CCc1cnc(-c2cccc(NCCNC3CCN([C@H](C)CC)CC3)n2)[nH]1` [Example 235, 1-[(2R)-Butan-2-yl]-N-(2-{[6-(4-ethyl-1H-imidazol-2-yl)pyridin-2-yl]amino}ethyl)piperidin-4-amine], the Ki lay in the range of 100 to 500 nM.

Consider `CC(C)N1CCC(N2CCCN(c3cccc(C(=O)NCCN(C)C)n3)CC2)CC1` [Example 16, N-[2-(Dimethylamino)ethyl]-6-{4-[1-(propan-2-yl)piperidin-4-yl]-1,4-diazepan-1-yl}pyridine-2-carboxamide], for which the Ki lay within 100 to 500 nM.

`CCc1cnc(-c2cccc(N3CCCN(C4CCN([C@@H](C)C(F)(F)F)CC4)CC3)n2)[nH]1` [Example 115, 1-[6-(4-Ethyl-1H-imidazol-2-yl)pyridine-2-yl]-4-{1-[(2S)-1,1,1-trifluoropropan-2-yl]piperidin-4-yl}-1,4-diazepane]: the Ki was 100 to 500 nM.

On to `CC(C)N1CCC(N2CCCN(c3cccc(C(=O)NCc4cccnc4)n3)CC2)C(F)C1` (stereo not drawn) [Example 185, 6-{4-[3-Fluoro-1-(propan-2-yl)piperidin-4-yl]-1,4-diazepan-1-yl}-N-(pyridin-3-ylmethyl)pyridine-2-carboxamide], for which the Ki fell in the range of 100 to 500 nM.

In the case of `CCCc1[nH]c(-c2cccc(N3CCCN(C4CCN(C(C)C)CC4)CC3)n2)nc1C` [Example 123, 1-[6-(5-Methyl-4-propyl-1H-imidazol-2-yl)pyridine-2-yl]-4-[1-(propan-2-yl)piperidin-4-yl]-1,4-diazepane], the Ki is under 20 nM.
